We go through eight compounds from ChEMBL document CHEMBL1201862, “PubChem BioAssay data set” (2004).

Active and inactive are the calls of the source. Where only a bound is given, the exact number is not on record here.

One test deals with Paired box protein Pax-8 (Homo sapiens, UniProt Q06710). As to the kind of experiment: inhibitors of PAX8-driven TPO luciferase reporter, dose response, RMG-I cells, cherry-pick (AID 687027).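 Further: luciferase reporter driven by Pax8 target thyroperoxidase promoter measured by SteadyGlo luminescence.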 Format: functional, cell-based. (In general: In a reporter assay the amount or activity of a reporter protein is the signal.)
Chain of Paired box protein Pax-8 (Q06710 whole entry): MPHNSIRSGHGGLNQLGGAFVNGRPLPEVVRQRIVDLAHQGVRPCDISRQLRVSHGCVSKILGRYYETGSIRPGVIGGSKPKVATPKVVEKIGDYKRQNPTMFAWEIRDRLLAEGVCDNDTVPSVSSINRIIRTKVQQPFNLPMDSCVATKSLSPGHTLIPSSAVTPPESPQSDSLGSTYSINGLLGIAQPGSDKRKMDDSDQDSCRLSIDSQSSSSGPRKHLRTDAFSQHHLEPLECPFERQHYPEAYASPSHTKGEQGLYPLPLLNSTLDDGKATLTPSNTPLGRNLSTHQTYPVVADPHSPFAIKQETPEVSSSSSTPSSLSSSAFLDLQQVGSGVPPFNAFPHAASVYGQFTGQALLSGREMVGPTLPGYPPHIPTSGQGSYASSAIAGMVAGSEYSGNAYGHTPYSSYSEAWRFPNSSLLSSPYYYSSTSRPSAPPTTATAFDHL
Test [1] in a line: A2780 ovarian cancer cell cytotoxicity, dose response, cytotoxicity control, plate reader, dry powder samples (AID 743046). Format: functional, cell-based.
Test [2] in a line: cytotoxicity in OVCAR8 ovarian cancer cells, dose response, PAX8 project, cell-based, plate reader, dry powder samples (AID 743197). Format: functional. Conditions: OVCAR-8.
A short description of test [3]: P. falciparum Dd2 growth inhibitors, dose response, SYBR Green, dry powder samples (AID 1159566).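 Further: potency for growth inhibition with lower SYBR green DNA signal.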 Format: functional, cell-based.
Test [4] in a line: P. falciparum 3D7-ScDHODH growth inhibitors, dose response, SYBR Green, dry powder samples (AID 1159570).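 Further: parasite growth measured after 72 hours of compound exposure.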 Format: functional, cell-based.
A short description of test [5]: P. falciparum Dd2 growth inhibitors, dose response, SYBR Green, cherry-picked samples (AID 1159567). Format: functional, cell-based.
The nature of test [6]: HepG2 cell cytotoxicity, dose response, cytotoxicity control, cherry-picked samples (AID 1159577). It counts as functional, cell-based.
A short description of test [7]: P. falciparum ATP4 D1247Y mutant growth inhibitors, dose response, NITD609-resistant line, SYBR Green, dry powder (AID 1159571).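 Further: parasites synchronized at ring stage by sorbitol before testing.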 Format: functional, cell-based.
Test [8] is described as follows: HepG2 cell cytotoxicity, dose response, cytotoxicity control, plate reader, dry powder samples (AID 1159569).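 Further: inhibitor potency with signal falling toward the positive control level.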 Format: functional, cell-based.
Test [9] can be described thus: inhibitors of Vif binding to APOBEC3G peptide, primary screen, biochemical, TR-FRET, GST-Vif 1-94, biotin-A3G peptide, dose response retest (AID 1117319).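 Further: inhibitors lower the FRET signal by blocking Vif and A3G binding.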 It counts as functional. (In general: In TR-FRET formats the signal depends on donor and acceptor labels being close together.)
For the next test, the target named is Kallikrein-7 (Homo sapiens, UniProt P49862). In words: Fluorescence Intensity-based biochemical primary high throughput dose response assay to identify activators of kallikrein-7 (K7) zymogen.
Chain of Kallikrein-7 (P49862 whole entry): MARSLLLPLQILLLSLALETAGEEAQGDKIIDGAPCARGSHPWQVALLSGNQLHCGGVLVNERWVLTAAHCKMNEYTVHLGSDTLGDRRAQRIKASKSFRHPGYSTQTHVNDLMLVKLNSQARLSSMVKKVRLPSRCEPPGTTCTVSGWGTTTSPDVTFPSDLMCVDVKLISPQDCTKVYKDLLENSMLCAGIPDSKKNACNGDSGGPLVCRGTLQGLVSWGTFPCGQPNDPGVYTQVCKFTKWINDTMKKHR
Another test concerns the target T1, Protein Tat (Human immunodeficiency virus type 1 group M subtype B (isolate HXB2)(HIV-1), UniProt P04608).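 Further: tat binding to TAR RNA read out by fluorescence polarization.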
T1 sequence (P04608 whole entry): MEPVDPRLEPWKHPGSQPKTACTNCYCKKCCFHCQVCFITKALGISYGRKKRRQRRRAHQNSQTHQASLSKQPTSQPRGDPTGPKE
It counts as functional.

The nature of test [10]: non-specific cell cytotoxicity, dose response, cytotoxicity control for PAX8 inhibitor project, plate reader, dry powder samples (AID 743021). It counts as functional, cell-based.
Test [11] in a line: HEK293 cell cytotoxicity, dose response, cytotoxicity control, plate reader, cherry-picked samples (AID 743446). Format: functional, cell-based.
Test [12] can be described thus: LGR2 antagonists, dose response, cell-based, HEK293, CRE-luciferase reporter, cherry pick, set 2 (AID 743343).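 Further: transfected cells were stimulated with diluted bursicon conditioned medium after compound addition.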 It counts as functional.
Test [13] is described as follows: MC4R antagonists, dose response, counter-screen for LGR2 antagonist project, cell-based, plate reader, cherry pick (AID 743444).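 Further: transfected HEK 293 cells stimulated with alpha-MSH peptide; potency of inhibitors of the alpha-MSH evoked signal.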 Format: functional. In general terms: The purpose of a counterscreen is to sort out artefacts and off-target activity.

What is called AC50 is the concentration giving half of the maximal activity seen. Take `CN1C(=O)c2cc(NC(=O)c3cccc(Cl)c3)ccc2OC[C@@H]2O[C@H](CC(=O)NC3CCCCC3)CC[C@@H]21`: the AC50 is 7.9 µM (active) at Paired box protein Pax-8, 1.19 µM (active) in test [1] and 51.9 µM (active) in test [2].

Regarding `C[C@@H]1CN([C@@H](C)CO)C(=O)Cc2cc(NC(=O)Nc3ccc(C(F)(F)F)cc3)ccc2O[C@H]1CN(C)Cc1ccc(-c2ccccc2)cc1`, the AC50 was 1.11 µM (active) in test [3]; 1.09 µM (active) in test [4]; 1.8 µM (active) in test [5]; 21.4 µM (active) in test [6]; 1.83 µM (active) in test [7]; 19.3 µM (active) in [8].

What is called IC50 is the concentration needed to halve the response being measured. Regarding `COc1ccc(C(=O)OCC(=O)c2c(N)n(C)c(=O)n(C)c2=O)cc1OC`, the half-maximal inhibitory concentration (IC50) in test [9] was > 100 µM (active).

With `C[C@H](CO)N1C[C@H](C)[C@@H](CN(C)C(=O)c2ccccc2F)Oc2ncc(C#Cc3cccc(F)c3)cc2C1=O`, the half-maximal activity concentration (AC50) in [3] is 1.63 µM (active); in test [4], 3.17 µM (active); in [5], 1.97 µM (active); in test [7], 2.1 µM (active); in [8] it was 39.9 µM (active).

Usually EC50 stands for the concentration giving half of the maximal effect. As for `CCOC(=O)N1CCN(C(=O)c2ccc3nc4ccsc4c(=O)n3c2)CC1`, the EC50 on Kallikrein-7 was 10.6 µM (inactive).

Consider `Cc1ccc(-n2c(C)cc(C(=O)OCC(=O)N(CC(C)C)C3CCS(=O)(=O)C3)c2C)cc1` (stereo not drawn), for which the IC50 (in test [9]; on Protein Tat) was > 100 µM (active) throughout.

Regarding `Oc1nc2ccccc2n1C1CCN(C(c2cccs2)c2nnnn2-c2ccc3c(c2)OCCO3)CC1` (stereo not drawn), the AC50 in [10] is 54.2 µM (active); at Paired box protein Pax-8, 1.78 µM (active).

Turning to `Cc1ccc(-c2nc(-c3ccccn3)no2)cc1[N+](=O)[O-]`, the AC50 in test [11] is > 52 µM (inactive); in [12], 4.31 µM (active); in test [13], 14.9 µM (active).
